The test system of test [1] is mouse hybridoma cell line. Nature of the test: Growth of mouse hybridoma cells in transferrin-free medium with iron chelators, static 24-well culture, 3 days. Format: cell-based. How it is done: A mouse hybridoma cell line previously subcultured in a serum-free medium containing 1 μg/ml human transferrin was centrifuged and resuspended in transferrin-free medium twice. […] 100×concentrates of the iron chelators to be tested (8-hydroxyquinoline, tropolone, mimosine, maltol or picolinic acid) were prepared in water and filter sterilised. 10 μl of each iron chelator was dispersed into wells of a 24 well costar plate and then 1 ml of cell suspension added. […] Control wells contained either 10 μl water (negative control) or 10 μl of 100 μg/ml human transferrin solution (positive control). Plates were incubated for 3 days in a humidified incubator under a 5% CO2—95% air atmosphere at 36.5° C. under static conditions. After 3 days samples of dispersed cell suspensions from individual wells were analysed using a Coulter Multisizer to determine cell concentration.

Test [2] concerns mouse myeloma cell line [GS-NSO]. The test is described as follows: Growth of GS-NSO myeloma cells in protein-free LS1 medium, shake flasks. The settings on record: 5 μM tropolone, FIG. 5. Type of test: cell-based. The method, then: The LS1 medium additionally contained 2-hydroxypropyl-β-cyclodextrin [HPB; 1.2 g/l] complexed with cholesterol and fatty acids [prepared before addition to LS1 by dissolving HPB ([…]) in water and adding to an equal volume of a supplement containing cholesterol and the fatty acids previously dissolved in absolute alcohol, then agitating for 3 hours prior to centrifugation and filtering].

In test [3] the test system is animal cells. Nature of the test: Support of growth in agitated animal cell culture at low iron concentration. Format: cell-based.
Test [4] has as its system recombinant GS-myeloma cell lines [mouse NS/O]. The test is described as follows: Growth and productivity of recombinant GS-myeloma NS/O cell lines in suspension culture. The settings on record: for PEAK CELL DENSITY: 0.2 mg/l ferric ammonium citrate with 5 μM tropolone or 1 mg/l transferrin. Format: cell-based. The text has this: The efficacy of using tropolone as a transferrin replacement was further investigated using recombinant GS-myeloma cell lines [mouse NS/O] expressing humanised antibodies using the glutamine synthetase (GS) expression system, [Bebbington et al., Bio/Technology, 10, 169-175; European Patent Specification No. 256055].

The subject of test [5] is mouse hybridoma cell line. Conditions: increasing concentrations up to 10 mg/l, transferrin-free medium, 3 days, FIG. 2A. How it is done: A mouse hybridoma cell line, previously subcultured in serum free medium containing human transferrin, was centrifuged and resuspended at 1.5×10^5 cells/ml in either transferrin-free or transferrin-containing serum-free medium. […] The flasks were gassed in 5% CO2—95% air atmosphere, sealed and incubated either static or on an orbital reciprocal shaking platform (120 rpm) at 36.5° C. for 3 days. Samples were then removed and cell concentration was determined by haemocytometry.

For test [6], the system named is mouse hybridoma cell line. Conditions: 5 μM tropolone. The method, then:
Flasks were gassed with an atmosphere of 5% CO2—95% air and incubated on an orbital shaking platform (120 rpm) at 36.5° C. for 3 days.
After 3 days samples were withdrawn from flasks and cell concentration determined using a Coulter multisizer.

The mark [7] stands for this setting: 5 μM tropolone vs 1 mg/l transferrin, 0.2 mg/l ferric ammonium citrate, three cell lines.

In the case of `O=c1cccccc1O` [tropolone, 2-hydroxy-2,4,6-cycloheptatrien-1-one], the “support of cell growth (cell concentration after 3 days)” value is on record as “as effective as 1 μg/ml of human transferrin at supporting cell growth” in test [1] (3 μM tropolone, 0.36 μM iron (0.1 mg/l ferric ammonium citrate), transferrin-free, FIG. 1A) and “effective at supporting cell growth” in test [1] (5 μM, 0.1 mg/l ferric ammonium citrate, FIG. 1B). Moreover, the “support of cell growth” value in test [2] (0.2 mg/l ferric ammonium citrate, LS1 medium with HPB or BSA carrier) is on record as “able to support the growth of both cultures”. Moreover, in test [3], the “support of growth in agitated cell culture” value (“support of growth” below) is reported as “can support growth”. For the same molecule, the “growth rates compared with transferrin medium” value in test [4] (setting [7]) is listed as “similar”. Besides, the “peak viable cell concentration compared with transferrin medium” value in test [4] (setting [7]) was “similar”. The “PEAK CELL DENSITY” value was determined as 1.51e+06 mL⁻¹ in test [4] (Cell line A), 1.49e+06 mL⁻¹ in test [4] (Cell line B) and 3.17e+06 mL⁻¹ in test [4] (Cell line C).

As to “TRANSFERRIN: human transferrin, natural iron-chelating protein used as positive control”, the “PEAK CELL DENSITY” value in test [4] (Cell line A) was 1.3e+06 mL⁻¹; in test [4] (Cell line B), 1.46e+06 mL⁻¹; in test [4] (Cell line C), 2.62e+06 mL⁻¹.

On to ferric ammonium citrate, for which the “effect on cell concentration in static culture” value in test [5] was “support increasing cell concentrations”. Moreover, the “time to death of myeloma cells (failed to thrive)” value in test [4] (0.2 mg/l ferric ammonium citrate in the absence of either tropolone or transferrin) was at most 48 h. Also, in test [6] (data not shown), the growth yield was 3.3×10^7 cells/μg ferric ammonium citrate. Besides, the “concentration range giving maximum biomass” value in test [6] (shaken 120 rpm, 3 days) lay in the range of 0.075 to 1 mg/L.

With `CC(=O)CC(C)=O` [acetylacetone, reference compound], the “support of cell growth (cell concentration after 3 days)” value in test [1] (100 μM, 0.1 mg/l ferric ammonium citrate, FIG. 1B) is reported as “much less effective”.

For the molecule `O=C(O)CC(O)(CC(=O)O)C(=O)O` [citrate], the “support of growth” value in test [3] was “has failed”.

For the molecule `O=C(O)[C@H](O)[C@@H](O)[C@H](O)[C@H](O)CO` [gluconate], the “support of growth” value in test [3] is listed as “has failed”.

With `O=C(O)c1ccccn1` [picolinic acid, reference compound], the “support of cell growth (cell concentration after 3 days)” value in test [1] (50 μM, 0.1 mg/l ferric ammonium citrate, FIG. 1B) was “much less effective”.

As to “2-hydroxypropyl-β-cyclodextrin [reference compound]”, the “performance as carrier for cholesterol and fatty acids (cell growth)” value in test [2] (1.2 g/l HPB in LS1 medium vs bovine serum albumin) is recorded as “an effective replacement for bovine serum albumin”.

Values taken from US6593140B1, “Animal cell culture” (Lonza Group, AG, priority 1992, dated 2003).
